Source: the NIST ThermoML archive (doi:10.1021/je049932z)
Numbers after ± are expanded uncertainties.

Key:
[1] = 293.15 K
[2] = wn = mass fraction of the nth substance listed; settings: 293.15 K; for mass density / viscosity: 101.3 kPa, Liquid

**Q.** What does the source list for CCOCCOCCOCC [diethylene glycol diethyl ether]?
**A.** surface tension liquid-gas [1]: 29.27 ± 1.6 mN/m; mass density ([1]; 101.3 kPa, Liquid): 907.3 ± 4.2 kg/m3; viscosity ([1]; 101.3 kPa, Liquid): 1.346 ± 0.042 mPa·s

**Q.** What does the source list for CCOCCOCCOCC [diethylene glycol diethyl ether] + O?
**A.** surface tension liquid-gas ([2]; w1 = 0.0033): 69.73 ± 2.8 mN/m; surface tension liquid-gas ([2]; w1 = 0.00984): 66.53 ± 2.7 mN/m; surface tension liquid-gas ([2]; w1 = 0.01771): 56.82 ± 2.4 mN/m; surface tension liquid-gas ([2]; w1 = 0.03207): 45.57 ± 2.1 mN/m; surface tension liquid-gas ([2]; w1 = 0.05896): 36.39 ± 1.8 mN/m; surface tension liquid-gas ([2]; w1 = 0.1611): 35.71 ± 1.8 mN/m; surface tension liquid-gas ([2]; w1 = 0.2547): 34.92 ± 1.8 mN/m; surface tension liquid-gas ([2]; w1 = 0.3578): 34.11 ± 1.8 mN/m; surface tension liquid-gas ([2]; w1 = 0.4474): 32.3 ± 1.7 mN/m; surface tension liquid-gas ([2]; w1 = 0.5769): 30.54 ± 1.7 mN/m; surface tension liquid-gas ([2]; w1 = 0.6385): 30.21 ± 1.6 mN/m; surface tension liquid-gas ([2]; w1 = 0.7794): 30.46 ± 1.6 mN/m; surface tension liquid-gas ([2]; w1 = 0.8549): 30.2 ± 1.6 mN/m; surface tension liquid-gas ([2]; w1 = 0.9401): 30.01 ± 1.6 mN/m; surface tension liquid-gas ([2]; w1 = 1): 29.27 ± 1.6 mN/m; mass density ([2]; w1 = 0.05896): 996.7 ± 4.8 kg/m3; viscosity ([2]; w1 = 0.05896): 1.18 ± 0.037 mPa·s; mass density ([2]; w1 = 0.07683): 996.9 ± 4.8 kg/m3; viscosity ([2]; w1 = 0.07683): 1.265 ± 0.039 mPa·s; mass density ([2]; w1 = 0.1038): 997.1 ± 4.8 kg/m3; viscosity ([2]; w1 = 0.1038): 1.451 ± 0.044 mPa·s; mass density ([2]; w1 = 0.1227): 997.2 ± 4.8 kg/m3; viscosity ([2]; w1 = 0.1227): 1.551 ± 0.047 mPa·s; mass density ([2]; w1 = 0.1425): 998.2 ± 4.8 kg/m3; viscosity ([2]; w1 = 0.1425): 1.701 ± 0.051 mPa·s; mass density ([2]; w1 = 0.1611): 998.5 ± 4.8 kg/m3; viscosity ([2]; w1 = 0.1611): 1.839 ± 0.055 mPa·s; mass density ([2]; w1 = 0.1951): 998.6 ± 4.8 kg/m3; viscosity ([2]; w1 = 0.1951): 2.149 ± 0.063 mPa·s; mass density ([2]; w1 = 0.2207): 999.3 ± 4.8 kg/m3; viscosity ([2]; w1 = 0.2207): 2.414 ± 0.071 mPa·s; mass density ([2]; w1 = 0.2547): 999.1 ± 4.8 kg/m3; viscosity ([2]; w1 = 0.2547): 2.707 ± 0.079 mPa·s; mass density ([2]; w1 = 0.2828): 999.8 ± 4.8 kg/m3; viscosity ([2]; w1 = 0.2828): 2.961 ± 0.086 mPa·s; mass density ([2]; w1 = 0.3185): 999.5 ± 4.8 kg/m3; viscosity ([2]; w1 = 0.3185): 3.302 ± 0.095 mPa·s; mass density ([2]; w1 = 0.3578): 999.1 ± 4.8 kg/m3; viscosity ([2]; w1 = 0.3578): 3.637 ± 0.1 mPa·s; mass density ([2]; w1 = 0.3773): 996.6 ± 4.8 kg/m3; viscosity ([2]; w1 = 0.3773): 3.781 ± 0.11 mPa·s; mass density ([2]; w1 = 0.4231): 994.6 ± 4.8 kg/m3; viscosity ([2]; w1 = 0.4231): 4.088 ± 0.12 mPa·s; mass density ([2]; w1 = 0.4474): 993.1 ± 4.8 kg/m3; viscosity ([2]; w1 = 0.4474): 4.218 ± 0.12 mPa·s; mass density ([2]; w1 = 0.5151): 989 ± 4.7 kg/m3; viscosity ([2]; w1 = 0.5151): 4.462 ± 0.13 mPa·s; mass density ([2]; w1 = 0.5769): 981.1 ± 4.7 kg/m3; viscosity ([2]; w1 = 0.5769): 4.452 ± 0.13 mPa·s; mass density ([2]; w1 = 0.6029): 979.1 ± 4.7 kg/m3; viscosity ([2]; w1 = 0.6029): 4.403 ± 0.12 mPa·s; mass density ([2]; w1 = 0.6385): 973.1 ± 4.6 kg/m3; viscosity ([2]; w1 = 0.6385): 4.27 ± 0.12 mPa·s; mass density ([2]; w1 = 0.6814): 966.4 ± 4.6 kg/m3; viscosity ([2]; w1 = 0.6814): 4.033 ± 0.12 mPa·s; mass density ([2]; w1 = 0.7256): 960.1 ± 4.6 kg/m3; viscosity ([2]; w1 = 0.7256): 3.741 ± 0.11 mPa·s; mass density ([2]; w1 = 0.7794): 949.6 ± 4.5 kg/m3; viscosity ([2]; w1 = 0.7794): 3.189 ± 0.092 mPa·s; mass density ([2]; w1 = 0.8549): 940.7 ± 4.4 kg/m3; viscosity ([2]; w1 = 0.8549): 2.599 ± 0.076 mPa·s; mass density ([2]; w1 = 0.9195): 926.2 ± 4.3 kg/m3; viscosity ([2]; w1 = 0.9195): 1.943 ± 0.058 mPa·s; mass density ([2]; w1 = 0.9401): 920.7 ± 4.3 kg/m3; viscosity ([2]; w1 = 0.9401): 1.75 ± 0.05 mPa·s; mass density ([2]; w1 = 0.9769): 912.8 ± 4.3 kg/m3; viscosity ([2]; w1 = 0.9769): 1.467 ± 0.045 mPa·s; mass density ([2]; w1 = 1): 907.3 ± 4.2 kg/m3; viscosity ([2]; w1 = 1): 1.346 ± 0.042 mPa·s

**Q.** For O [water], which surface tension liquid-gas [1] is on record?
**A.** 72.75 ± 2.8 mN/m

**Q.** And the viscosity ([1]; 101.3 kPa, Liquid)?
**A.** 1.002 ± 0.032 mPa·s

**Q.** Which results are given for O [water] + CCOCCOCCOCC?
**A.** surface tension liquid-gas ([2]; w2 = 0): 72.75 ± 2.8 mN/m; mass density ([2]; w2 = 0): 997.2 ± 4.8 kg/m3; viscosity ([2]; w2 = 0): 1.002 ± 0.032 mPa·s
